Consider 19 compounds from ChEMBL document CHEMBL1135665, “Synthesis and biological evaluation of 14-alkoxymorphinans. 17. Highly delta opioid receptor selective 14-alkoxy-substituted indolo- and benzofuromorphinans” (J Med Chem, 2002).

For assay [1], the target named is T1, Kappa-type opioid receptor (Cavia porcellus, UniProt P41144). The experiment in a line: Binding affinity at kappa opioid receptor 1 in guinea pig brain by [3H]U-69593 displacement.
The species entered for assay [2] is Rattus norvegicus. The experiment in a line: Selectivity ratio (Ki value towards kappa receptor compared to that of delta receptor).
Assay [3] addresses Opioid receptors; mu & delta (Rattus norvegicus) (UniProt P33533+P33535). The experiment in a line: Selectivity ratio (Ki value towards mu receptor compared to that of delta receptor). The format is protein assay.
Assay [4] concerns the target Mu-type opioid receptor (Rattus norvegicus, UniProt P33535). The experiment in a line: Binding affinity at mu opioid receptor 1 in rat brain membrane by [3H]DAMGO displacement. The assay is classed as cell membranes.
Assay [5] concerns the target T2, Delta-type opioid receptor (Rattus norvegicus, UniProt P33533). The experiment in a line: Binding affinity at delta opioid receptor 1 in rat brain membrane by [3H]DADLE displacement. The assay is classed as cell membranes.
The target of assay [6] is T1, Kappa-type opioid receptor. The experiment in a line: The ability of compound to inhibit [35S][…] binding in guinea pig caudate stimulated by U69,593 (Opioid receptor kappa 1) antagonist. The assay is classed as functional.
Assay [7] has as its target Mu-type opioid receptor (Cavia porcellus, UniProt P97266). The experiment in a line: The ability of compound to inhibit [35S][…] binding in guinea pig caudate stimulated by DAMGO (Opioid receptor mu 1) antagonist. The assay is classed as functional.
In assay [8] the target is T2, Delta-type opioid receptor. The experiment in a line: Opioid receptor delta 1 binding affinity was determined by inhibition of binding of [3H]DADLE to rat brain membrane.

SMILES strings stand for the structures.

Mu-type opioid receptor (Cavia porcellus, UniProt P97266), sequence (P97266 whole entry): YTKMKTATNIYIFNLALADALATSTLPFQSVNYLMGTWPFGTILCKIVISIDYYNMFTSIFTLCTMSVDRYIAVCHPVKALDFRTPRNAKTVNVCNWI
T1 sequence (P41144 whole entry): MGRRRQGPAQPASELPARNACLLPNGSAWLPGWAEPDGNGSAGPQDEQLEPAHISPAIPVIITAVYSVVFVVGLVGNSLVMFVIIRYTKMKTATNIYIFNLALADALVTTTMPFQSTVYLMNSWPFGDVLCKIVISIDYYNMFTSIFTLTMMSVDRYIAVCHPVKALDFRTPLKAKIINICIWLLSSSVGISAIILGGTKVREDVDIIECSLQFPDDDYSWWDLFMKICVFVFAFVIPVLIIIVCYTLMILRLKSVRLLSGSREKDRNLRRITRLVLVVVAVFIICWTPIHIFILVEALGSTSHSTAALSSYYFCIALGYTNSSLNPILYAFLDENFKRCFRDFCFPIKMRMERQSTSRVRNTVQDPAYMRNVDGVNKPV
Opioid receptors; mu & delta (Rattus norvegicus), sequence (P33533 whole entry, looked up): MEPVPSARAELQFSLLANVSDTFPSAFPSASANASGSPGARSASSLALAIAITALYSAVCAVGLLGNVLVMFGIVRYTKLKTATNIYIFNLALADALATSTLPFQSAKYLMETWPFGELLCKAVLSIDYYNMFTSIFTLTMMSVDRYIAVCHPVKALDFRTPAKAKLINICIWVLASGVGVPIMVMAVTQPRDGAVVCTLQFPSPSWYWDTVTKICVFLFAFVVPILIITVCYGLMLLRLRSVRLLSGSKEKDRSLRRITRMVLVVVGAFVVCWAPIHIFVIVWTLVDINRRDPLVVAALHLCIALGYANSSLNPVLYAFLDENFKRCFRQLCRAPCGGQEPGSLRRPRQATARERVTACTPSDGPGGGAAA
Opioid receptors; mu & delta (Rattus norvegicus), sequence (P33535 whole entry, looked up): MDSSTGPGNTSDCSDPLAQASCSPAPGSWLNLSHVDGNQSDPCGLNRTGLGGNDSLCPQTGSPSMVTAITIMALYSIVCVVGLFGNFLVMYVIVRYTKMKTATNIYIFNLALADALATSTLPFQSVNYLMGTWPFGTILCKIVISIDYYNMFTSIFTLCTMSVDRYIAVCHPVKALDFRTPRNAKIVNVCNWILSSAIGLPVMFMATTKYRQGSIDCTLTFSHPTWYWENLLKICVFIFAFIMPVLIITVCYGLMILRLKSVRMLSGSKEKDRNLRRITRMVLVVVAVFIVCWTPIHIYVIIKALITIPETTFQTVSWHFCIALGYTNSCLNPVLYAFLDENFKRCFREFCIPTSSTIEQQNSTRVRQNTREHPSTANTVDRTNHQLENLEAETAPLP
T2 sequence (P33533 whole entry): as the sequence (P33533 whole entry, looked up) above
Mu-type opioid receptor (Rattus norvegicus, UniProt P33535), sequence (P33535 whole entry): as the sequence (P33535 whole entry, looked up) above

Take `CCCN1CC[C@]23c4c5ccc(O)c4O[C@H]2c2c(c4ccccc4n2C)C[C@@]3(OC)[C@H]1C5`: the Ki in assay [1] was 115 nM; in assay [4], 106 nM; in assay [5], 11.5 nM. For the same compound, the Selectivity was found to be 10 in assay [2] and 9.2 in assay [3].

On to `CC(C)CCO[C@@]12Cc3c([nH]c4ccccc34)[C@]3(C)Oc4c(O)ccc5c4[C@@]31CCN(C)[C@@H]2C5`, for which the inhibition constant (Ki) was found to be 1260 nM in assay [1], 238 nM in assay [4] and 12.8 nM in assay [5]. The Selectivity in assay [2] stood at 99; in assay [3], 19.

For `CO[C@@]12Cc3c([nH]c4ccccc34)[C@]3(C)Oc4c(O)ccc5c4[C@@]31CCN(C)[C@@H]2C5`, the Ki came to 1530 nM in assay [1], 58 nM in assay [4] and 3.95 nM in assay [5]. Besides, the Selectivity is 387 in assay [2] and 15 in assay [3].

As for `CCCO[C@@]12Cc3c(n(CCC)c4ccccc34)[C@@H]3Oc4c(O)ccc5c4[C@@]31CCN(CC1CC1)[C@@H]2C5`, the Ki in assay [1] is 3.1 nM; in assay [4], 14.8 nM; in assay [5], 1.28 nM. The Selectivity worked out at 2.4 in assay [2] and 12 in assay [3].

With `CCCO[C@@]12Cc3c([nH]c4ccccc34)[C@]3(C)Oc4c(O)ccc5c4[C@@]31CCN(CC1CC1)[C@@H]2C5`, the Ki amounted to 504 nM in assay [1], 555 nM in assay [4] and 5.3 nM in assay [5]. Moreover, the Selectivity in assay [2] worked out at 95; in assay [3], 105.

Regarding `C=CCN1CC[C@]23c4c5ccc(O)c4O[C@H]2c2[nH]c4ccccc4c2C[C@@]3(OCC)[C@H]1C5`, the inhibitory constant (Ki) in assay [1] is 349 nM; in assay [6], above 10000 nM; in assay [4], 1370 nM; in assay [5], 2.6 nM; in assay [7], above 10000 nM. For the same compound, the Selectivity in assay [2] was 134; in assay [3], 526.

With `CCO[C@@]12Cc3c([nH]c4ccccc34)[C@]3(C)Oc4c(O)ccc5c4[C@@]31CCN(C)[C@@H]2C5`, the Ki in assay [1] came out at 725 nM; in assay [4], 515 nM; in assay [5], 3.9 nM. In addition, the figures for the Selectivity in assay [2] and in assay [3] were 186 and 132, respectively.

For the compound `CCO[C@@]12Cc3c(oc4ccccc34)[C@@H]3Oc4c(O)ccc5c4[C@@]31CCN(CC1CC1)[C@@H]2C5`, the Ki in assay [1] was 94 nM; in assay [6], above 10000 nM; in assay [4], 185 nM; in assay [5], 1.18 nM; in assay [7] it was above 10000 nM. The Selectivity in assay [2] was 80; in assay [3], 157.

Take `C=CCN1CC[C@]23c4c5ccc(O)c4O[C@H]2c2[nH]c4ccccc4c2C[C@@]3(OC)[C@H]1C5`: the Ki in assay [1] is 233 nM; in assay [4], 869 nM; in assay [5], 3.8 nM. The Selectivity in assay [2] turned out to be 61; in assay [3], 229.

For the compound `CCO[C@@]12Cc3c([nH]c4ccccc34)[C@]3(C)Oc4c(O)ccc5c4C31CCN(CC1CC1)[C@@H]2C5`, the inhibition constant (Ki) in assay [1] is 134 nM; in assay [6], above 10000 nM; in assay [4] it was 340 nM; in assay [5], 4.4 nM; in assay [7], above 10000 nM. Moreover, the Selectivity was found to be 30 in assay [2] and 77 in assay [3].

Regarding `CCCO[C@@]12Cc3c([nH]c4ccccc34)[C@]3(C)Oc4c(O)ccc5c4[C@@]31CCN(C)[C@@H]2C5`, the figures for the Ki in assay [1], in assay [4] and in assay [5] were 556 nM, 30 nM and 5.3 nM, respectively. For the same compound, the figures for the Selectivity in assay [2] and in assay [3] were 105 and 5.7, respectively.

Turning to `CCO[C@@]12Cc3c([nH]c4ccccc34)[C@]3(C)Oc4c(O)ccc5c4[C@@]31CCN(CC1CCC1)[C@@H]2C5`, the Ki in assay [1] was found to be 378 nM; in assay [4], 409 nM; in assay [5], 12.6 nM. Further, the results for the Selectivity in assay [2] and in assay [3] were 30 and 32, respectively.

Consider `C=CCN1CC[C@]23c4c5ccc(O)c4O[C@H]2c2c(c4ccccc4n2C)C[C@@]3(OC)[C@H]1C5`, for which the Ki in assay [1] was found to be 149 nM; in assay [4] it was 731 nM; in assay [5] it was 1.97 nM.

Consider `CO[C@@]12Cc3c([nH]c4ccccc34)[C@@H]3Oc4c(O)ccc5c4[C@@]31CCN(CC1CCCCC1)[C@@H]2C5`, for which the Ki in assay [1] stood at 3250 nM; in assay [4], 14000 nM; in assay [5], 370 nM. Moreover, the Selectivity was found to be 8.8 in assay [2] and 38 in assay [3].

As to `C=CCN1CC[C@]23c4c5ccc(O)c4O[C@H]2c2c(c4ccccc4n2Cc2ccccc2Cl)C[C@@]3(OCc2ccccc2Cl)[C@H]1C5`, the Ki in assay [1] is 721000 nM; in assay [4], 1230 nM; in assay [5], 151 nM. In addition, the results for the Selectivity in assay [2] and in assay [3] were 4800 and 8.2, respectively.

As to `C=CCO[C@@]12Cc3c(n(CC=C)c4ccccc34)[C@@H]3Oc4c(O)ccc5c4[C@@]31CCN(CC=C)[C@@H]2C5`, the Ki was 763 nM in assay [1], 1000 nM in assay [4] and 7.3 nM in assay [5]. Besides, the Selectivity in assay [2] worked out at 105; in assay [3], 137.

In the case of `CN1CC[C@]23c4c5ccc(O)c4O[C@H]2c2[nH]c4ccccc4c2C[C@@]3(O)[C@H]1C5` [OXYMORPHINDOLE], the Ki in assay [1] was found to be 395 nM; in assay [4], 171 nM; in assay [8] it was 2 nM. Further, the Selectivity is 198 in assay [2] and 86 in assay [3].

As for `C=CCN1CC[C@]23c4c5ccc(O)c4O[C@H]2c2oc4ccccc4c2C[C@@]3(OCC)[C@H]1C5`, the results for the Ki in assay [1], in assay [4] and in assay [5] were 68 nM, 22.8 nM and 1.2 nM, respectively. The Selectivity in assay [2] came out at 57; in assay [3] it was 19.

With `Oc1ccc2c3c1O[C@H]1c4[nH]c5ccccc5c4C[C@@]4(O)[C@@H](C2)N(CC2CC2)CC[C@]314` [NALTRINDOLE], the Ki amounted to 15.8 nM in assay [1] and 0.81 nM in assay [5].
